From patent US20250049968A1, “THERAPEUTIC AND IMAGING AGENTS FOR TARGETING MYOCARDIAL TISSUE” (The Board of Regents of the University of Oklahoma, priority 2023, published 2025)

What was measured:
[1] = clinical PK profile; cited from earlier work
MI hearts = assay: Whole-body PET imaging of ^18F-OM for detection of MI in mice; assay type: in vivo; settings: for cardiac uptake in MI hearts compared to sham/normal hearts, PET: occluded left anterior descending coronary artery model
Method: Approximately 80 uCi of ^18F-OM was injected and images were acquired after 4 h. […] In another non-limiting embodiment of the present disclosure, the OM or OM-liposomes can be labeled with ^18F radionuclide for PET imaging of myocardial infarction as an infarct-avid radiotracer. Unlike radiotracers for perfusion imaging, infarct-avid agents are not taken up by normal myocardium and only accumulate at the site of acute infarct. Therefore, infarct radiotracers produce images with less background and improved signal-to-noise ratio. Currently, no infarct-avid radiotracer is available for clinical PET imaging of infarct tissue. […] After successful labeling, we investigated ^18F-OM for detection of MI in a mouse model of occluded anterior descending branch of the left coronary artery. After imaging, the mice were euthanized to collect various organs for counting of tissue-associated radioactivity.

[2] = approx. 80 uCi, images after 4 h, FIG. 6

Row | Structure (SMILES) | mean apparent terminal elimination half-life (t1/2) [1] | accumulation in sham hearts, PET (MI hearts; FIG. 7) | background signal from accumulation in liver and lung tissue (MI hearts; PET, mice) | detection of surgical MI, target/non-target ratio (MI hearts; PET, mice, FIG. 6) | accumulation in hearts of MI mice, whole-body PET (MI hearts; [2]) | accumulation in normal hearts of control mice, whole-body PET (MI hearts; [2]) | cardiac uptake in MI hearts compared to sham/normal hearts, PET (MI hearts; FIG. 7) | cardiac uptake in MI hearts compared to sham/normal hearts, PET (MI hearts; FIG. 7, listed as [18F]-OMA)
1 | COC(=O)N1CCN(Cc2cccc(NC(=O)Nc3ccc(C)nc3)c2F)CC1 [OM, omecamtiv mecarbil] | 18.5 h |  |  |  |  |  |  | 
2 | COC(=O)N1CCN(Cc2cccc(NC(=O)Nc3ccc(C)nc3)c2OCCF)CC1 [^18F-OM, Methyl 4-(2-(2-fluoroethoxy)-3-(3-(6-methylpyridin-3-yl)ureido)benzyl)piperazine-1-carboxylate] |  | accumulated significant | lack of background signal | high target/non-target ratio | high accumulation | no visible accumulation | significantly more pronounced | distinctly high uptake
